Test results reported in the supplement of paper PMC10307832.

What was measured:
Experiment in all cases: relative viability (nuclei count vs DMSO), 5 days (fraction); higher = more cells survive
Sunitinib = compound: CCN(CC)CCNC(=O)c1c(C)[nH]c(/C=C2\C(=O)Nc3ccc(F)cc32)c1C [Sunitinib]
Summary of the method: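 Five library-drug doses, separated by factors of √10, were pinned into 1536-well plates holding lung cancer cell lines after an overnight stay at 37 °C. Cells were fixed, permeabilised and Hoechst-stained in one step after 5 days without medium change, then imaged at 4×. Viability compares treated-well with vehicle-well nuclei, counted in MetaXpress, as a median across plates. Passing plates had control CV below 25% and at least one doubling.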

Sunitinib + Navitoclax = compound: CCN(CC)CCNC(=O)c1c(C)[nH]c(/C=C2\C(=O)Nc3ccc(F)cc32)c1C [Sunitinib] + CC1(C)CCC(c2ccc(Cl)cc2)=C(CN2CCN(c3ccc(C(=O)NS(=O)(=O)c4ccc(N[C@H](CCN5CCOCC5)CSc5ccccc5)c(S(=O)(=O)C(F)(F)F)c4)cc3)CC2)C1 [Navitoclax] (partner 0.5 µM)
Summary of the method: (§1)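 The day after seeding in 1536-well plates, lung cancer cell lines were treated by pin tool with a single drug, or with a fixed anchor-drug dose together with five library-drug doses (not always all listed) in √10 steps. After 5 days, a combined fix-and-stain solution (final 0.05% Triton X-100, 1% formaldehyde, 1 ug/ml Hoechst) was added. Nuclei counted on 4× images gave relative viability as treated counts over vehicle counts, reported as the median of duplicate plates.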

Sunitinib + Tozasertib = compound: CCN(CC)CCNC(=O)c1c(C)[nH]c(/C=C2\C(=O)Nc3ccc(F)cc32)c1C [Sunitinib] + Cc1cc(Nc2cc(N3CCN(C)CC3)nc(Sc3ccc(NC(=O)C4CC4)cc3)n2)n[nH]1 [Tozasertib] (partner 0.1 µM)
Summary of the method: as §1

Sunitinib + Phenformin = compound: CCN(CC)CCNC(=O)c1c(C)[nH]c(/C=C2\C(=O)Nc3ccc(F)cc32)c1C [Sunitinib] + N=C(N)NC(=N)NCCc1ccccc1 [Phenformin] (partner 250 µM)
Summary of the method: as §1

Row | Cell Line | relative viability (Sunitinib; 0.02 µM) | relative viability (Sunitinib; 0.06325 µM) | relative viability (Sunitinib; 0.2 µM) | relative viability (Sunitinib; 0.6325 µM) | relative viability (Sunitinib + Navitoclax; first compound 0.02 µM) | relative viability (Sunitinib + Navitoclax; first compound 0.06325 µM) | relative viability (Sunitinib + Navitoclax; first compound 0.2 µM) | relative viability (Sunitinib + Navitoclax; first compound 0.6325 µM) | relative viability (Sunitinib + Navitoclax; first compound 2 µM) | relative viability (Sunitinib + Tozasertib; first compound 0.02 µM) | relative viability (Sunitinib + Tozasertib; first compound 0.06325 µM) | relative viability (Sunitinib + Tozasertib; first compound 0.2 µM) | relative viability (Sunitinib + Tozasertib; first compound 0.6325 µM) | relative viability (Sunitinib + Tozasertib; first compound 2 µM) | relative viability (Sunitinib + Phenformin; first compound 0.02 µM) | relative viability (Sunitinib + Phenformin; first compound 0.06325 µM) | relative viability (Sunitinib + Phenformin; first compound 0.2 µM) | relative viability (Sunitinib + Phenformin; first compound 0.6325 µM) | relative viability (Sunitinib + Phenformin; first compound 2 µM) | relative viability (Sunitinib; 2 µM)
1 | NCI-H1666 | 1.02 | 1.07 | 1.1 | 1.05 | 1.03 | 0.921 | 1.22 | 0.836 | 0.96 | 0.676 | 0.685 | 0.719 | 0.655 | 0.71 | 0.569 | 0.587 | 0.55 | 0.586 | 0.538 | 
2 | NCI-H1734 | 0.916 | 1.11 | 1.04 | 1.05 | 0.785 | 0.815 | 0.954 | 0.846 | 0.906 | 0.265 | 0.262 | 0.25 | 0.325 | 0.247 | 0.345 | 0.46 | 0.474 | 0.392 | 0.358 | 0.981
3 | NCI-H1755 |  |  | 1.04 | 1.03 |  |  |  | 1.04 | 0.993 | 0.561 | 0.529 | 0.752 | 0.593 | 0.569 | 0.574 | 0.672 | 0.675 | 0.692 | 0.642 | 1.05
4 | NCI-H1793 |  | 0.974 |  | 0.964 |  | 0.528 | 0.438 | 0.458 | 0.472 | 0.413 | 0.34 | 0.351 | 0.281 | 0.214 | 0.349 | 0.319 | 0.483 | 0.326 | 0.333 | 0.831
5 | NCI-H1915 | 0.943 | 1.05 | 1.02 | 1.03 | 0.764 | 0.765 | 0.833 | 0.815 | 0.805 | 0.415 | 0.418 | 0.46 | 0.453 | 0.465 | 0.348 | 0.396 | 0.43 | 0.367 | 0.368 | 1.07
6 | NCI-H1944 | 0.914 | 1.09 | 1.15 | 1.05 | 1.03 | 1.04 | 1.1 |  | 1 | 0.229 | 0.283 | 0.283 | 0.255 | 0.258 | 0.183 | 0.206 | 0.214 | 0.203 | 0.199 | 1.1
7 | NCI-H1975 | 0.911 |  | 1.06 | 0.963 | 1.07 | 1.15 | 1.11 | 1.12 | 1.12 | 0.705 | 0.67 | 0.717 | 0.318 | 0.186 | 0.399 | 0.442 | 0.425 | 0.427 | 0.393 | 0.855
8 | NCI-H1993 | 0.963 | 0.992 | 1.08 | 0.915 | 0.923 | 1.01 |  | 0.872 | 0.905 | 0.527 | 0.581 | 0.678 | 0.605 | 0.586 | 0.541 | 0.501 | 0.545 | 0.479 | 0.53 | 0.98
9 | NCI-H2009 | 0.957 | 1.07 | 1.07 | 1.11 | 1.18 | 1.19 | 1.26 | 1.16 | 1.26 | 0.695 | 0.747 | 0.858 | 0.78 | 0.716 | 0.446 | 0.501 | 0.461 | 0.465 | 0.429 | 
10 | NCI-H2023 | 0.874 | 1.09 | 1.07 | 1.03 |  | 1.05 | 1.11 | 1.06 | 0.975 | 0.304 | 0.301 | 0.382 | 0.239 | 0.181 | 0.391 | 0.446 | 0.519 | 0.459 | 0.385 | 0.967
11 | NCI-H2085 | 0.999 | 1.04 | 1.01 | 1.03 |  | 1.19 | 1.23 | 1.18 | 1.28 | 0.863 | 0.835 | 1.02 | 0.747 | 0.605 | 0.686 | 0.916 | 0.788 | 0.877 | 0.754 | 1.04
12 | NCI-H2087 | 1.16 | 1.25 | 1.13 | 1.1 | 0.976 | 0.99 | 1.14 | 1.01 | 0.969 | 0.253 | 0.259 | 0.329 | 0.284 | 0.233 | 0.456 | 0.398 | 0.545 | 0.507 | 0.42 | 1.11
13 | NCI-H2126 | 0.946 | 1.06 | 1.04 | 1.04 | 0.833 | 0.865 | 0.904 | 0.871 | 0.798 | 0.846 | 0.852 | 0.963 | 0.92 | 0.81 | 0.509 | 0.534 | 0.537 | 0.561 | 0.517 | 1.03
14 | NCI-H2170 | 0.909 | 0.993 | 1.05 | 0.953 | 0.607 | 0.681 | 0.572 | 0.651 | 0.445 | 0.771 | 0.961 | 0.715 | 0.808 | 0.838 | 0.474 | 0.398 | 0.436 | 0.408 | 0.367 | 0.959
15 | NCI-H2228 | 1.02 | 1.21 | 1.07 | 0.973 | 0.87 | 0.792 | 1 | 0.96 | 0.524 | 0.23 | 0.266 | 0.279 | 0.207 | 0.223 | 0.332 | 0.405 | 0.315 | 0.341 | 0.322 | 0.962
16 | NCI-H2347 | 1.01 | 1.08 | 1.1 | 1.04 | 0.888 | 0.825 | 0.836 | 0.817 | 0.818 | 0.599 | 0.481 | 0.59 | 0.607 | 0.523 | 0.486 | 0.484 | 0.567 | 0.384 | 0.404 | 1.18
17 | NCI-H2405 | 1.01 | 1.06 | 1.05 | 1.07 | 0.985 | 0.892 | 0.909 | 1.14 | 0.977 | 0.757 | 0.794 | 0.811 | 0.761 | 0.809 | 0.399 | 0.391 | 0.406 | 0.395 | 0.406 | 1.01
18 | NCI-H3122 | 0.986 | 1.05 | 0.996 | 1.01 | 0.975 | 1.04 | 1.07 | 1.04 | 0.983 | 0.429 | 0.475 | 0.539 | 0.433 | 0.567 | 0.35 | 0.387 | 0.366 | 0.361 | 0.288 | 
19 | PC-3 [JPC-3] | 1.12 | 1.05 | 0.981 | 1.02 | 0.843 | 0.906 | 0.846 | 0.879 | 0.797 | 0.912 | 0.909 | 0.954 | 0.936 | 0.867 | 0.478 | 0.484 | 0.471 | 0.502 | 0.468 | 1.02
20 | PC-14 | 1.01 | 1.01 | 1.13 | 1.02 | 0.987 | 0.999 | 1.1 | 0.996 | 0.958 | 0.53 | 0.589 | 0.583 | 0.578 | 0.523 | 0.557 | 0.552 | 0.674 | 0.568 | 0.571 | 0.898
21 | RERF-LC-KJ | 0.956 | 1.06 | 1.08 | 0.992 | 0.844 | 0.899 | 1.13 | 0.876 | 0.977 | 0.508 | 0.487 | 0.547 | 0.47 | 0.541 | 0.422 | 0.407 | 0.48 | 0.411 | 0.404 | 
22 | SK-LU-1 | 0.972 | 1.19 | 1.1 | 1.13 | 0.768 | 0.6 | 0.796 |  | 0.727 | 0.377 | 0.424 | 0.433 | 0.379 | 0.332 | 0.46 | 0.63 | 0.586 | 0.523 | 0.409 | 0.959
23 | SK-MES-1 | 0.931 | 1.03 | 1.09 | 1.11 | 1.18 | 1.34 | 1.43 | 1.3 | 1.3 | 0.892 |  | 0.979 | 1 |  | 0.619 | 0.665 | 0.689 | 0.655 | 0.52 | 0.988
24 | SW 1573 | 0.947 | 1.17 | 1.26 | 1.11 | 1.04 | 1.18 | 1.07 | 1.12 | 0.976 | 0.153 | 0.22 | 0.205 | 0.155 | 0.195 | 0.338 | 0.449 | 0.368 | 0.386 | 0.306 | 0.905
25 | UMC-11 | 0.872 | 1.11 | 1.01 | 0.995 | 0.302 | 0.307 | 0.367 | 0.281 | 0.272 | 0.206 | 0.207 | 0.198 | 0.199 | 0.197 | 0.331 | 0.352 | 0.355 | 0.324 | 0.309 | 0.937
